Counter-ions that a name gives are not always drawn.
Assays:
[1] = system: K562R cells (drug-resistant K562, high Bcr/Abl protein); assay: Apoptosis in drug-resistant K562R cells, morphologic assessment; format: cell-based, human
Procedure: (§1) They are cultured in drug-free medium prior to all experimental procedures.
Values represent the means for three separate experiments performed in triplicate±S.D.

[2] = system: K562 human leukemia cells; assay: Apoptosis in K562 cells, morphologic assessment of Wright-Giemsa-stained slides; format: cell-based
Procedure: as §1
Assessment of apoptosis: Following drug exposures, cytocentrifuge preparations are stained with Wright-Giemsa and viewed by light microscopy to evaluate the extent of apoptosis as described in Wang Z. et al., 1999 Cancer Res. 59, 1259-67.
Values represent the means for three separate experiments performed in triplicate±SD (standard deviation).
Values represent the means for three separate experiments performed in triplicate±S.D (standard deviation).
The Combination Index (CI) is determined in relation to the fraction of cells affected using Median Dose Effect analysis. Results are representative of three separate experiments.

Structure (SMILES): CN1CC[C@H](c2c(O)cc(O)c3c(=O)cc(-c4ccccc4Cl)oc23)[C@H](O)C1 [FP, 4H-1-benzopyran-4-one,2-(2-chlorophenyl)-5,7-dihydroxy-8-(3-hydroxy-1-methyl-4-piperidinyl)-,hydrochloride, (−)-cis-]
- toxicity ([1]; 48-hr exposure, 150 nM FP): non-toxic
- percentage of apoptotic cells, mean ([1]; 48 h, FP 200 nM): 1.77%
- cell death ([2]; K562, 150 nM FP by itself): < 5%
- percentage of apoptotic cells, mean ([2]; K562, 24 h, FP 150 nM (time course)): 1.40%
- percentage of apoptotic cells, mean ([2]; K562, 48 h, FP 50 nM without SALT I): 1.9%
- percentage of apoptotic cells, mean ([2]; K562, 48 h, FP 100 nM without SALT I): 2.4%
- percentage of apoptotic cells, mean ([2]; K562, 48 h, FP 150 nM (time course)): 3.33%
- percentage of apoptotic cells, mean ([2]; K562, 48 h, FP 150 nM without SALT I): 3.2%
- percentage of apoptotic cells, mean ([2]; K562, 48 h, FP 200 nM without SALT I): 6.1%
- percentage of apoptotic cells, mean ([2]; K562, 48 h, FP 300 nM without SALT I): 18.5%
- percentage of apoptotic cells, mean ([2]; K562, 48 h, SALT I 0 nM + FP 150 nM (FP alone)): 0.9%

Structure (SMILES): Cc1ccc(NC(=O)c2ccc(CN3CCN(C)CC3)cc2)cc1Nc1nccc(-c2cccnc2)n1 [SALT I, 4-[(4-methyl-1-piperazin-1-ylmethyl)-N-[4-methyl-3-[[4-(3-pyridinyl)-2-pyrimidinyl]amino]phenyl]benzamide methanesulfonate]
- percentage of apoptotic cells, mean ([2]; K562, 24 h, SALT I 200 nM (time course)): 2.57%
- percentage of apoptotic cells, mean ([2]; K562, 48 h, FP 0 nM + SALT I 200 nM (SALT I alone)): 5.7%
- percentage of apoptotic cells, mean ([2]; K562, 48 h, SALT I 50 nM without FP): 1.9%
- percentage of apoptotic cells, mean ([2]; K562, 48 h, SALT I 100 nM without FP): 1.8%
- percentage of apoptotic cells, mean ([2]; K562, 48 h, SALT I 150 nM without FP): 3.0%
- percentage of apoptotic cells, mean ([2]; K562, 48 h, SALT I 200 nM (time course)): 5.97%
- percentage of apoptotic cells, mean ([2]; K562, 48 h, SALT I 200 nM without FP): 4.6%
- percentage of apoptotic cells, mean ([2]; K562, 48 h, SALT I 250 nM without FP): 8.9%
- percentage of apoptotic cells, mean ([2]; K562, 48 h, SALT I 300 nM without FP): 20.3%
- percentage of apoptotic cells, mean ([2]; K562, 48 h, SALT I 400 nM without FP): 30.8%
- percentage of apoptotic cells, mean ([2]; K562, 48 h, SALT I 500 nM without FP): 53.8%
- induction of apoptosis ([2]; K562, 48 hr, SALT I concentrations <300 nM): weakly induces apoptosis
- apoptosis ([2]; parental K562S cells, 1.5 μM SALT I, 48 hr): > 95%

Reference: patent publication US7888341B2, “Combination of glivec (STI571) with a cyclin-dependent kinase inhibitor, especially flavopiridol, in the treatment of cancer” (The United States of America as represented by the …, priority 2002, dated 2011)
